Consider 73 molecules from PubChem BioAssay AID179 (DTP/NCI, 2004).

This experiment relates to CEM cells HIV-1 protection, formazan growth assay. The experiment is described as follows: NCI AIDS Antiviral Assay. The conditions noted are these: for IC50: measured here: growth of uninfected CEM cells. An outline of the steps:
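Protection of CEM cells against HIV-1 was scored from cell growth (soluble formazan) across five concentrations, with parallel uninfected cells. Lack of protection may reflect toxicity.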

SMILES strings stand for the structures. Activity calls are given as the source filed them.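 How the source made its calls: active means compounds giving half or more protection of infected cells from virus-caused growth loss, again on retest; inactive means the rest.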

On to `CC(C)C1=CC23CCC4C(C)(C(=O)O)CCCC4(C)C2CC1C1C(=O)N(c2cccc(N4C(=O)C5C6CC7C8(C)CCCC(C)(C(=O)O)C8CCC7(C=C6C(C)C)C5C4=O)c2)C(=O)C13` (centres undefined), for which the EC50 was greater than 269 µM and the IC50 turned out to be 13.2 µM. Consider `COC(=O)C12CCC(C(F)(F)C1=O)C2(C)C` (centres undefined), for which the EC50 was greater than 200 µM and the IC50 is greater than 200 µM.

Turning to `[O-]c1on[n+]2c1CCCC2`, the outcome was inactive. For the molecule `CC(=O)NC(CCC(=O)c1ccc(Cl)cc1)(C(=O)O)C(=O)O`, the EC50 was greater than 200 µM and the IC50 is greater than 200 µM. As for `CC(=O)C(C(=O)CCSCCO)C(SCCO)c1ccc(Cl)c(Cl)c1` (centres undefined), the EC50 was greater than 200 µM and the half-maximal inhibitory concentration (IC50) was 10.5 µM. For `CCOc1ccc(NC(=O)C(=O)C(C(=O)c2ccc3ccccc3c2)C2OC(=O)c3ccccc32)cc1` (centres undefined) the same measures were greater than 52.5 µM and 45.7 µM.

As for `CCOC(=O)c1ccccc1-c1c2cc(Br)c(=O)c(Br)c-2oc2c(Br)c(O)c(Br)cc12`, the EC50 is greater than 200 µM and the IC50 is 12 µM. The like results for `C[N+](C)(C)Cc1c(CC#N)[nH]c2ccccc12` were, in that order, greater than 123 µM and 66.1 µM. Take `CN(C)c1cc[n+](-c2c([O-])c3ccccc3n(-c3ccccc3)c2=O)cc1`: the EC50 was greater than 200 µM and the IC50 stood at 195 µM. The like results for `COc1ccc(C2c3cc(O)c(OC)cc3Oc3cc(OC)c(O)cc32)cc1` were, in that order, greater than 200 µM and 8.51 µM. Turning to `c1cn(C23C4C5C6C4C2C6C53)cn1` (centres undefined), the EC50 is greater than 200 µM and the IC50 was greater than 200 µM.

`Oc1[nH]c2ccccc2c1N=NC(=S)N1CCCCC1`: the EC50 was greater than 200 µM and the IC50 was determined as 1.02 µM. Turning to `Cc1cn(C(CCO)CCO)c(=O)[nH]c1=O`, the EC50 was greater than 200 µM and the IC50 is greater than 200 µM. Regarding `CC(CCC(C)C(=O)O)C(=O)O` (centres undefined), the EC50 is greater than 1450 µM and the IC50 is greater than 1450 µM. As for `CCOC(=O)/C(=C\c1ccc(CO)o1)P(=O)(OCC)OCC`, the EC50 was greater than 200 µM and the IC50 turned out to be 30.9 µM.

On to `CN(C(=O)c1ccccc1S)c1ccccc1`, for which the EC50 is greater than 200 µM and the IC50 is 20.4 µM.

Turning to `CCOCC(Br)C(OCC)OCC` (centres undefined), the result was inactive. For the molecule `CC(=O)c1ccccc1NCC(=O)Nn1cnc2ccc(S(=O)(=O)Nc3ccccc3C(C)=O)cc2c1=O`, the EC50 is greater than 200 µM and the IC50 was greater than 200 µM. In the case of `NCCS(=O)(=O)O`, the EC50 is greater than 200 µM and the IC50 is greater than 200 µM. Take `O=S(=O)(SC(Cl)(Cl)Cl)c1cccc(S(=O)(=O)c2cccc(S(=O)(=O)SC(Cl)(Cl)Cl)c2)c1`: the EC50 was greater than 200 µM and the IC50 was greater than 200 µM.

Turning to `CC(C)(C)C1(c2ccc(C3(c4ccccc4)Oc4ccccc4S3)[nH]2)Oc2ccccc2S1` (centres undefined), the outcome was inactive. For `O=C(/C=C/c1ccc(Cl)cc1)c1ccccc1`, the EC50 is greater than 56.2 µM and the IC50 was 11.2 µM. Turning to `COc1cc(-c2ccc(N=Nc3cc4cc(S(=O)(=O)O)ccc4cc3O)c(OC)c2)ccc1N=Nc1cc2cc(S(=O)(=O)O)ccc2cc1O`, the EC50 was 17.4 µM and the IC50 is 120 µM. With `Nc1ncc(Br)c(NCC2(CO)CCC2)n1`, the EC50 was greater than 200 µM and the IC50 is 15.8 µM. Turning to `OC1(c2cccc3ccccc23)CCCc2cc3c(ccc4ccccc43)cc21` (centres undefined), the EC50 is greater than 200 µM and the concentration for half-maximal inhibition (IC50) came to 155 µM. For `CC[P+]1(c2ccccc2)[C@@H](C)CC[C@@H]1C`, the EC50 is greater than 200 µM and the IC50 was 91.2 µM. On to `CC1=CC(C)(c2c[nH]c3ccccc23)CC(C)(C)c2c1[nH]c1ccccc21` (centres undefined), for which the outcome was inactive. On to `Cc1cccc(NC(=S)NC(=O)c2ccccc2)n1`, for which the EC50 is greater than 200 µM and the IC50 is greater than 200 µM. On to `COC(=O)CSc1nnc(CSc2ccc(Cl)cc2)n1-c1ccccc1`, for which the EC50 is greater than 200 µM and the IC50 stood at 105 µM. As to `CSc1nc(NC2OCC(O)C(O)C2O)c(N)c(=O)[nH]1` (centres undefined), the outcome was inactive. Consider `COc1ccc(N2C(=O)C3c4[nH]c5ccc(C)cc5c4C4CCC(c5ccccc5)CC4C3C2=O)cc1` (centres undefined), for which the result was inactive. Still for that read-out and setting: then `O=C1CN(c2ccccc2)CC(=O)N2C(c3ccccc3)CCCN12` (centres undefined), with “inactive”.

`C1CCC2(CC1)CCCN2`: the EC50 was greater than 200 µM and the IC50 is greater than 200 µM. Regarding `O=[N+]([O-])c1nccn1CCCNCCCn1ccnc1[N+](=O)[O-]`, the EC50 was greater than 200 µM and the IC50 is greater than 200 µM. With `C[n+]1c2ccccc2c(CNCC(=O)O)c2ccccc21`, the result was inactive. Consider `S=c1n(-c2ccc(Cl)cc2)c2nc3ccccc3nc(/c2=N\Nc2ccc(Br)cc2)n1-c1ccccn1`, for which the EC50 was greater than 32.4 µM and the IC50 stood at 30.9 µM.

Regarding `CC12CC3CC(C)(C1)CC(SCCN)(C3)C2`, the EC50 was greater than 200 µM and the IC50 came to 38 µM.

`CC(=O)NC(CCCN(Cc1ccccc1)C(=O)N(CCCl)N=O)C(=O)NCc1ccccc1` (centres undefined): the EC50 was greater than 74.1 µM and the IC50 was determined as 45.7 µM. With `O=S(=O)(O)ON=C1c2ccccc2-c2ccccc21`, the EC50 is greater than 200 µM and the IC50 stood at 195 µM. Consider `COC(=O)c1cc2c(=O)n(C)c(=O)n(C)c2[nH]c1=O`, for which the EC50 is greater than 200 µM and the IC50 is greater than 200 µM. Consider `COCN1C(=O)CN=C(c2ccccc2)c2cc(NO)ccc21`, for which the EC50 is 16.2 µM and the IC50 is 21.9 µM.

Consider `COc1ccc(C(C(N)=O)N2CCCCC2)cc1` (centres undefined), for which the EC50 is greater than 200 µM and the IC50 was greater than 200 µM. Turning to `CC(C)OC(=S)SSSC(=S)OC(C)C`, the EC50 is greater than 200 µM and the IC50 is 19.1 µM.

`CCOc1ccccc1NC(=O)CC1SC(=Nc2ccc([N+](=O)[O-])cc2)NC1=O` (centres undefined): the EC50 was greater than 229 µM and the IC50 was 93.3 µM. Take `c1ccc(SC(Sc2ccccc2)=C2CCC2)cc1`: the result was inactive. `Cc1cc2c(C(C)C)c(O)c(O)c(C=NCCc3ccccc3)c2c(O)c1-c1c(C)cc2c(C(C)C)c(O)c(O)c(C=NCCc3ccccc3)c2c1O`: the EC50 was greater than 200 µM and the IC50 came to 8.71 µM. For the molecule `CCSc1[nH]c(NC(=S)NC(=O)c2ccccc2Cl)c(C(N)=O)c1C(N)=O`, the EC50 was greater than 200 µM and the IC50 worked out at 110 µM. For `C=CCOCC1C2CCC3(OCCO3)C21` (centres undefined) the same measures were greater than 200 µM and 148 µM. As to `CCN(CC)C(=O)N1CCN(C)CC1`, the EC50 was greater than 200 µM, the outcome was inactive and the IC50 is greater than 200 µM. For `CC1=Nc2cc(N)nn2C(=O)C1`, the EC50 was greater than 200 µM and the IC50 is greater than 200 µM. For the molecule `COC(=O)C1=C(C(=O)OC)C2OC1C1C2C2(C)C(C)=C(C)C1(C)S2=O` (centres undefined), the EC50 is greater than 200 µM and the IC50 stood at 2.82 µM. Regarding `Fc1cccc(C2SCc3nc4ccccc4n32)c1F` (centres undefined), the outcome was inactive. Regarding `C[N+](C)(C)CC1CCC(C[N+](C)(C)C)C1=O` (centres undefined), the result was inactive.

Take `COc1ccc(C2OC(N)=C(C#N)C3=C2CCCC3C)cc1OC` (centres undefined): the EC50 was greater than 200 µM and the IC50 is greater than 200 µM.

As to `CCOP(=O)(OCC)C(c1ccc(F)cc1)N(C(=O)NC(F)(F)F)c1ccc(F)cc1` (centres undefined), the EC50 is greater than 200 µM and the IC50 is greater than 200 µM. Regarding `COC(=S)NP(=O)(NC(=S)OC)NC(=S)OC`, the EC50 was greater than 200 µM and the IC50 was greater than 200 µM. In the case of `CC(=O)c1c(O)cc2c(c1O)C1CC(C)(CCC1=C(C)C)O2` (centres undefined), the EC50 was greater than 186 µM and the IC50 came out at 26.3 µM. Take `CO[C@@H]1O[C@H](C(=O)c2ccccc2)[C@H]2OC(C)(C)O[C@@H]12`: the EC50 was greater than 200 µM and the IC50 was 45.7 µM.

`O=C1CNc2cc(N3CCN(c4ccccc4)CC3)ccc2N1`: the EC50 is greater than 200 µM and the IC50 was 25.1 µM. For `OC1=C2CCCCCC2=[N+]2CCCCC2C1` (centres undefined), the EC50 was greater than 200 µM and the IC50 was greater than 200 µM.

Consider `CC(=O)Oc1c(OC(C)C)c(C)c(O[Si](C(C)C)(C(C)C)C(C)C)c2[nH]c3ccccc3c12`, for which the EC50 is greater than 100 µM and the IC50 turned out to be 13.5 µM. Regarding `CCN(CC)c1ccc2cc(C(=O)Nc3cccc4ccccc34)c(=N)oc2c1`, the EC50 was greater than 200 µM and the IC50 is 12.6 µM. On to `O=C1c2ccccc2-c2ccc3c4ccc5c6c(ccc(c7ccc1c2c73)c64)-c1ccccc1C5=O`, for which the EC50 is greater than 200 µM and the half-maximal inhibitory concentration (IC50) was greater than 200 µM. On to `O=C1NC2(CCCC2)C2CCCCC12O` (centres undefined), for which the outcome was inactive. Take `Cc1cc(-c2cccs2)oc(=O)c1NC(=O)c1ccccc1`: the EC50 is greater than 200 µM and the IC50 worked out at 26.9 µM. For `CCOC(=O)c1c(SC(=O)C(C)(C)Oc2ccc(Cl)cc2)n(-c2ccccc2)c(=S)n(-c2ccccc2)c1=O`, the EC50 was greater than 200 µM and the IC50 was determined as 9.55 µM.

Take `C=C(C)[C@@H]1CC[C@]2(C)CC[C@@]3(C)[C@]4(C)CC[C@H]5C(C)(C)[C@@H](OC(=O)CCC(=O)O)CC[C@]5(C)[C@H]4CC[C@]3(C)[C@@H]12`: the EC50 is 44.7 µM and the IC50 is greater than 100 µM. Take `NC(=S)N/N=C/c1cccc(CC(O)(C(F)(F)F)C(F)(F)F)n1`: the EC50 was greater than 200 µM and the IC50 was 5.89 µM. Turning to `CC(C)(C)[Si](C)(C)OCC1OC(n2ccc(=O)[nH]c2=O)C(CCN(O)CC2OC(n3ccc(=O)[nH]c3=O)C(O[Si](C)(C)C(C)(C)C)C2O[Si](C)(C)C(C)(C)C)C1O[Si](C)(C)C(C)(C)C` (centres undefined), the EC50 is greater than 126 µM and the IC50 came to 105 µM. For `CC1C(=NO)C(C)C(c2ccccc2)N(N=O)C1c1ccccc1` (centres undefined) the same measures were greater than 200 µM and greater than 200 µM. With `CCOC(OC1=C(C#N)CCCC1)C(CC)[Se]c1ccccc1` (centres undefined), the EC50 was greater than 132 µM and the IC50 is 67.6 µM. `Cc1[nH]c2ccccc2c1C(=O)CC1(O)C(=O)Nc2ccccc21` (centres undefined): the result was inactive.

In the case of `CC(=O)Nc1ccc(/C=c2\sc3nnc(/C=C/c4ccccc4)n3c2=O)cc1`, the EC50 is greater than 93.3 µM and the IC50 is greater than 93.3 µM.
